Some test systems named below: 786-0; HCT-15; HOP-92; Hs-578T; K562; KM12; LOX IMVI; M14; MDA-MB-231; MDA-MB-435; OVCAR-4; SF-295; SK-MEL-2; SK-OV-3; SNB-19; SNB-75; SR; SW-620; T47D; TK-10.
Common to all, as to assay: NCI anticancer screen, dose series, 48 h

Results on five compounds are retold here after ChEMBL document CHEMBL1201862, “PubChem BioAssay data set” (2004).

Each structure is given as a SMILES string.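 Exposure lasted 48 hours, with cells grown in 96-well plates and compounds tested at five concentrations. At the GI50, growth is halved.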 Calls of active or inactive are those of the source. Rule as the data show it: active = GI50 up to about 1.1 µM and inactive = higher. A value given as a limit tells only on which side of the number the result lay.

Regarding `COC(=O)C1[C@H](C(=O)OC)C1(Br)CBr` (stereo not given in full), the GI50 is > 100 µM (inactive) in the assay on 786-0; more than 100 µM in the assay on HCT-15; > 100 µM (inactive) in the assay on HOP-92; > 100 µM (inactive) in the assay with Hs-578T; > 100 µM (inactive) in the assay with K562; > 100 µM (inactive) with KM12. Also, the GI50 in the assay with LOX IMVI, in the assay with M14, in the assay with MDA-MB-231, in the assay on MDA-MB-435, with OVCAR-4 and in the assay with SF-295 was > 100 µM (inactive) in each case. For the same compound, the GI50 in the assay on SK-MEL-2, with SK-OV-3, in the assay on SNB-19, in the assay with SNB-75, in the assay on SR and in the assay with SW-620 was > 100 µM (inactive) in each case. The GI50 in the assay on T47D and in the assay with TK-10 was > 100 µM (inactive) each time.
In the case of `Cc1cccc(NC(=O)O/N=C(\Cl)C(C)C)c1`, the GI50 in the assay with 786-0 is 2 µM (inactive); with HCT-15, 2.25 µM; with HOP-92, 1.66 µM (inactive); with Hs-578T, 23.1 µM (inactive); in the assay on K562, 2.31 µM (inactive); in the assay with KM12, 19.4 µM (inactive). Further, the GI50 in the assay with LOX IMVI was 1.83 µM (inactive); in the assay with M14, 4.58 µM (inactive); in the assay with MDA-MB-231 it was 17.9 µM (inactive); with MDA-MB-435, 14.5 µM (inactive); in the assay with OVCAR-4, 14 µM (inactive); in the assay on SF-295 it was 17.5 µM (inactive). The GI50 was 17.7 µM (inactive) in the assay on SK-MEL-2; 17.7 µM (inactive) with SK-OV-3; 20.3 µM (inactive) with SNB-19; 18.1 µM (inactive) in the assay with SNB-75; 1.38 µM (inactive) in the assay with SR; 2.19 µM (inactive) in the assay on SW-620. The GI50 with T47D is 6.82 µM (inactive); in the assay on TK-10, 14 µM (inactive).
As to `OC1NC2Nc3ccccc3NC2NC1O` (stereo not given), the GI50 is > 100 µM (inactive) in the assay with 786-0; more than 100 µM in the assay on HCT-15; 30.8 µM (inactive) in the assay on HOP-92; > 100 µM (inactive) with Hs-578T; > 100 µM (inactive) in the assay with K562; > 100 µM (inactive) in the assay on KM12. The GI50 with LOX IMVI, in the assay with M14, in the assay on MDA-MB-231, with MDA-MB-435, in the assay on OVCAR-4 and in the assay with SF-295 was > 100 µM (inactive) throughout. Besides, the GI50 in the assay with SK-MEL-2, with SK-OV-3, in the assay with SNB-19, in the assay with SNB-75, in the assay on SR and with SW-620 was > 100 µM (inactive) in each case. In addition, the GI50 with T47D and with TK-10 was > 100 µM (inactive) in each case.
As to `O=C1c2ccccc2CCC1C(O)(C(F)(F)F)C(F)(F)F` (stereo not given), the GI50 in the assay on 786-0 was > 100 µM (inactive); in the assay with HCT-15 it was 63 µM; in the assay with HOP-92, > 100 µM (inactive); in the assay with Hs-578T it was > 100 µM (inactive); with K562, > 100 µM (inactive); in the assay on KM12, > 100 µM (inactive). Besides, the GI50 in the assay with LOX IMVI, with M14, with MDA-MB-231, in the assay on MDA-MB-435, with OVCAR-4 and in the assay on SF-295 was > 100 µM (inactive) each time. Also, the GI50 with SK-MEL-2 is 27.5 µM (inactive); with SK-OV-3 it was > 100 µM (inactive); in the assay on SNB-19, > 100 µM (inactive); with SNB-75, 26.2 µM (inactive); in the assay on SR it was > 100 µM (inactive); in the assay with SW-620, > 100 µM (inactive). Also, the GI50 in the assay on T47D is 44.3 µM (inactive); in the assay with TK-10, > 100 µM (inactive).
`COc1ccc(OC)c(C(=O)/C=C/c2cc(O)c(O)cc2F)c1`: the GI50 in the assay on 786-0 was 2.28 µM (inactive); with HCT-15, 0.076 µM; with HOP-92 it was 10.1 µM (inactive); with Hs-578T, 0.424 µM (active); in the assay on K562, 0.356 µM (active); with KM12 it was 0.474 µM (active). The GI50 is 0.69 µM (active) in the assay on LOX IMVI; 0.638 µM (active) with M14; 1.41 µM (inactive) in the assay on MDA-MB-231; 0.219 µM (active) with MDA-MB-435; 2.29 µM (inactive) in the assay with OVCAR-4; 1.33 µM (inactive) in the assay on SF-295. The GI50 was 1.02 µM (active) with SK-MEL-2; 3.35 µM (inactive) in the assay with SK-OV-3; 0.619 µM (active) in the assay with SNB-19; 0.442 µM (active) in the assay on SNB-75; 0.227 µM (active) in the assay with SR; 0.845 µM (active) in the assay on SW-620. Further, the GI50 was 5.85 µM (inactive) in the assay with T47D and 6.58 µM (inactive) in the assay with TK-10.
